What was measured:
EW-1 (Ewing's Sarcoma) = assay: Bliss excess, mean over the matrix (fraction); higher = more synergy
In short: (§1)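 Cell lines grown in DMEM/F12 or RPMI with 10% FBS were plated in 1536-well plates and held 24 hours at 37°C, 5% CO2 before 72 hours of exposure to two-drug dose matrices, with DMSO typically at 0.2%. CellTiter-Glo 2.0 luminescence gave viability, which was converted to inhibition. Vehicle wells were set to 0 and blank wells to 1. Combination Emax is the second-highest inhibition in the matrix, and Bliss excess is the observed combination effect minus the expected EA + EB − EA·EB, where EA and EB are the single-agent effects.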

[1] = system: G-401 (Other Solid Carcinomas); assay: as above
In short: as §1

[2] = system: HCC1500 (Breast Carcinoma); assay: as above
In short: as §1

[3] = system: HCC2998 (Colorectal Carcinoma); assay: as above
In short: as §1

Hey (Ovarian Carcinoma) = assay: as above
In short: as §1

[4] = system: KOPN-8 (B-Lymphoblastic Leukemia); assay: as above
In short: as §1

[5] = system: LC-1-sq (Squamous Cell Lung Carcinoma); assay: as above
In short: as §1

[6] = system: NCI-H1092 (Small Cell Lung Carcinoma); assay: as above
In short: as §1

[7] = system: NCI-H1838 (Lung Adenocarcinoma); assay: as above
In short: as §1

[8] = system: NCI-H2122 (Lung Adenocarcinoma); assay: as above
In short: as §1

[9] = system: NCI-H650 (Lung Adenocarcinoma); assay: as above
In short: as §1

COLO-679 (Melanoma) = assay: combination Emax (second highest fraction inhibited in the dose matrix, 72 h); higher = more inhibition; extreme values may be limits of the assay
In short: as §1

[10] = system: Ca-Ski (Cervical Carcinoma); assay: as above
In short: as §1

[11] = system: MDA-MB-453 (Breast Carcinoma); assay: as above
In short: as §1

[12] = system: ME-180 (Cervical Carcinoma); assay: as above
In short: as §1

[13] = system: ML-2 (Acute Myeloid Leukemia); assay: as above
In short: as §1

[14] = system: MOG-G-UVW (Low Grade Glioma); assay: as above
In short: as §1

[15] = system: MOLT-4 (T-Lymphoblastic Leukemia); assay: as above
In short: as §1

[16] = system: NCI-H1355 (Lung Adenocarcinoma); assay: as above
In short: as §1

[17] = system: SW872 (Other Solid Carcinomas); assay: as above
In short: as §1
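For Bliss excess, mean over the matrix in this document: after 72 h of two-drug dosing.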

Compound	Bliss excess (EW-1 (Ewing's Sarcoma))	Bliss excess [1]	Bliss excess [2]	Bliss excess [3]	Bliss excess (Hey (Ovarian Carcinoma))	Bliss excess [4]	Bliss excess [5]	Bliss excess [6]	Bliss excess [7]	Bliss excess [8]	Bliss excess [9]	combination Emax (COLO-679 (Melanoma))	combination Emax [10]	combination Emax [11]	combination Emax [12]	combination Emax [13]	combination Emax [14]	combination Emax [15]	combination Emax [16]	combination Emax [17]
CN(CCO)CC[C@H](CSc1ccccc1)Nc1ccc(S(=O)(=O)NC(=O)c2ccc(N3CCC([C@@H](O)c4ccccc4-c4ccc(Cl)cc4)CC3)cc2)cc1S(=O)(=O)C(F)(F)F [AZD4320] + C[C@@H]1COCCN1C2=NC(=NC(=C2)C3(CC3)[S@](=N)(=O)C)C4=C5C=CNC5=NC=C4 [AZD6738] (first compound max 1 µM, 7x7, partner max 10 µM)	0.0574	-0.0287	0.0444	-0.0283	-0.0697	-0.0246	0.0261	-0.0167	-0.0445	-0.0269	-0.0234	0.771	0.773	0.803	0.564	1	0.794	1	0.77	0.624
CN(CCO)CC[C@H](CSc1ccccc1)Nc1ccc(S(=O)(=O)NC(=O)c2ccc(N3CCC([C@@H](O)c4ccccc4-c4ccc(Cl)cc4)CC3)cc2)cc1S(=O)(=O)C(F)(F)F [AZD4320] + C[C@@H](Nc1cc(F)cc(F)c1)c1cc(C(=O)N(C)C)cc2c(=O)cc(N3CCOCC3)oc12 [AZD8186] (first compound max 1 µM, 7x7, partner max 3 µM)	0.0604	-0.101	0.016	-0.0212	-0.0027	0.0392	0.022	0.0389	0.0139	0	0.0081	0.256	0.509	0.48	0.338	0.999	0.727	0.982	0.34	0.293
C[C@@H](c1ccc2nccn2c1)n1nnc2ncc(-c3cnn(C)c3)nc21 [Savolitinib] + CC1(C)CCC(CN2CCN(c3ccc(C(=O)NS(=O)(=O)c4ccc(NCC5CCOCC5)c([N+](=O)[O-])c4)c(Oc4cnc5[nH]ccc5c4)c3)CC2)=C(c2ccc(Cl)cc2)C1 [Venetoclax] (first compound max 1 µM, 7x7, partner max 1 µM)	-0.0386	-0.0528	-0.008	-0.0866	-0.0651	0.0298	-0.0408	-0.0916	-0.049	-0.0559	-0.0822	0.109	0.174	0.15	0.114	0.46	0.392	0.476	0.137	0.136
COc1cc2c(cc1OCCCCCOc1cc3c(cc1OC)C(=O)N1C=C(C)C[C@H]1C=N3)N=C[C@@H]1CC(C)=CN1C2=O [SG3199] + O=C(c1cc(Cc2n[nH]c(=O)c3ccccc23)ccc1F)N1CCN(C(=O)C2CC2)CC1 [Olaparib] (first compound max 0.001 µM, 7x7, partner max 10 µM)	0.0403	-0.0211	-0.0144	-0.0099	-0.0086	-0.0265	-0.0029	-0.0165	-0.0795	0.0073	-0.0206	0.108	0.0833	0.128	0.201	0.436	0.307	0.402	0.104	0.0788
Cc1nc(Nc2ncc(C(=O)Nc3c(C)cccc3Cl)s2)cc(N2CCN(CCO)CC2)n1 [Dasatinib] + CC(=O)Nc1cccc(-n2c(=O)n(C3CC3)c(=O)c3c(Nc4ccc(I)cc4F)n(C)c(=O)c(C)c32)c1 [Trametinib] (first compound max 2 µM, 7x7, partner max 1 µM)	-0.0586	-0.0089	-0.0599	0.111	0.001	-0.188	-0.0577	-0.0494	-0.0793	0.0119	0.121	0.757	0.774	0.224	0.476	0.799	0.677	0.424	0.482	0.566
Cc1cc2ncnn2cc1Nc1ncc2c(n1)n(C1CCOCC1)c(=O)n2C [AZD7648] + C=CCn1c(=O)c2cnc(Nc3ccc(N4CCN(C)CC4)cc3)nc2n1-c1cccc(C(C)(C)O)n1 [AZD1775] (first compound max 10 µM, partner max 1 µM)	0.0272	-0.0029	0.0414	0.0368	-0.0086	-0.0472	0.0567	-0.0873	-0.0149	-0.0122	0.0029	0.46	0.704	0.347	0.529	1	0.779	1	0.672	0.384

— the supplement of paper PMC11061612
